{"source": "patent US11505548B2", "about": "“Heterocyclic compounds and their use for treatment of helminthic infections and diseases” (Celgene Corporation, priority 2019, dated 2022)", "system": "microfilariae of Dirofilaria immitis", "test": "Dirofilaria immitis, Microfilaria (DiMF) Assay", "type": "cell-based", "conditions": "read-out: D. immitis activity level (IC50 or MED)", "description": "Heartworm Screen Dirofilaria immitis (D. immitis)\nDirofilaria immitis, Microfilaria (DiMF) Assay.\nCompounds were dissolved and serially diluted in DMSO. Aliquots were spotted to the empty wells of assay plates. Media and microfilariae of Dirofilaria immitis were added to each well to dilute the test compounds to the desired concentrations. Assay plates were incubated for approximately 72 hours, and the larvae in each well were observed microscopically for drug effect. Microfilariae in each well were assessed subjectively for survival or paralysis, and results were reported as Minimum Effective Dose (MED).\nActive and selective (DiL4 vs. DiMF potency) example compounds were subsequently evaluated in heartworm positive dog studies to correlate the in vitro selectivity profile with in vivo effects on circulating microfilariae."}
{"smiles": "CC(C)c1cnc(Nc2nc(-c3cc(OC4CC4)ccn3)ns2)cc1C(F)(F)F", "note": "[Compound 96, 3-(4-cycloprop-oxypyridin-2-yl)-N-(5-isopropyl-4-(trifluoromethyl)pyridin-2-yl)-1,2,4-thiadiazol-5-amine]", "values": [{"measurement": "IC50", "value": "< 200", "unit": "nM"}]}
{"smiles": "CC(C)Oc1ccc(-c2nsc(Nc3ncccc3C(=O)N(C)C3CC(F)(F)C3)n2)nc1", "note": "[Compound 191, N-(3,3-difluoro-cyclobutyl)-2-(3-(5-isoprop-oxypyridin-2-yl)-1,2,4-thiadiazol-5-ylamino)-N-methyl-nicotinamide]", "values": [{"measurement": "IC50", "value": "500 to 5000", "unit": "nM"}]}
{"smiles": "CC(C)Oc1ccc(-c2nsc(Nc3ncccc3N3CCCC3)n2)nc1", "note": "[Compound 116, 3-(5-isopropoxy-pyridin-2-yl)-N-(3-(pyrrolidin-1-yl)pyridin-2-yl)-1,2,4-thiadiazol-5-amine]", "values": [{"measurement": "IC50", "value": "500 to 5000", "unit": "nM"}]}
{"smiles": "CC(C)c1ccnc(-c2nsc(Nc3ncccc3C(F)(F)F)n2)c1", "note": "[Compound 67, 3-(4-isopropyl-pyridin-2-yl)-N-(3-(trifluoromethyl)pyridin-2-yl)-1,2,4-thiadiazol-5-amine]", "values": [{"measurement": "IC50", "value": "< 200", "unit": "nM"}]}
{"smiles": "Cc1ccnc(-c2nsc(Nc3ncccc3F)n2)c1", "note": "[Compound 12, N-(3-fluoropyridin-2-yl)-3-(4-methylpyridin-2-yl)-1,2,4-thiadiazol-5-amine]", "values": [{"measurement": "IC50", "value": "200 to 500", "unit": "nM"}]}
{"smiles": "CC(C)Oc1ccc(-c2nsc(Nc3ncccc3N(C)C(=O)C3CC3)n2)nc1", "note": "[Compound 170, N-(2-(3-(5-isopropoxy-pyridin-2-yl)-1,2,4-thiadiazol-5-ylamino)pyridin-3-yl)-N-methylcyclo-propanecarbox-amide]", "values": [{"measurement": "IC50", "value": "500 to 5000", "unit": "nM"}]}
{"smiles": "Cc1cccnc1Nc1nc(-c2cnc(OC(C)C)cn2)ns1", "note": "[Compound 124, 3-(5-isopropoxy-pyrazin-2-yl)-N-(3-methyl-pyridin-2-yl)-1,2,4-thiadiazol-5-amine]", "values": [{"measurement": "IC50", "value": "500 to 5000", "unit": "nM"}]}
{"smiles": "FC(F)(F)c1cncc(Nc2nc(-c3ccccn3)ns2)c1", "note": "[Cmpd 3, 3-(pyridin-2-yl)-N-(5-(trifluoromethyl)pyridin-3-yl)-1,2,4-thiadiazol-5-amine]", "values": [{"measurement": "IC50", "value": "500 to 5000", "unit": "nM"}]}
{"smiles": "Cc1cccnc1Nc1nc(-c2ccc(OC(F)(F)F)cn2)ns1", "note": "[Compound 52, N-(3-methyl-pyridin-2-yl)-3-(5-(trifluoro-methoxy)pyridin-2-yl)-1,2,4-thiadiazol-5-amine]", "values": [{"measurement": "IC50", "value": "500 to 5000", "unit": "nM"}]}
{"smiles": "CC(=O)N(C)c1cccnc1Nc1nc(-c2ccc(OC3CCN(C(C)C)CC3(F)F)cn2)ns1", "note": "(stereo not shown) [Compound 203, N-(2-(3-(5-(3,3-difluoro-1-isopropyl-piperidin-4-yloxy)pyridin-2-yl)-1,2,4-thiadiazol-5-ylamino)pyridin-3-yl)-N-methylacetamide]", "values": [{"measurement": "IC50", "value": "500 to 5000", "unit": "nM"}]}
{"smiles": "CC(C)Oc1ccc(-c2nsc(Nc3ncccc3C3CC3)n2)nc1", "note": "[Compound 76, N-(3-cyclopropyl-pyridin-2-yl)-3-(5-isopropoxy-pyridin-2-yl)-1,2,4-thiadiazol-5-amine]", "values": [{"measurement": "IC50", "value": "< 200", "unit": "nM"}]}
{"smiles": "FC(F)(F)c1ccc(Nc2nc(-c3ccccn3)ns2)nc1", "note": "[Cmpd 1]", "values": [{"measurement": "IC50", "value": "< 200", "unit": "nM"}]}
{"smiles": "CC(C)Oc1cnc(-c2nsc(Nc3ncccc3N3CCCC3=O)n2)cc1C(F)(F)F", "note": "[Compound 179, 1-(2-(3-(5-isopropoxy-4-(trifluoromethyl)pyridin-2-yl)-1,2,4-thiadiazol-5-ylamino)pyridin-3-yl)pyrrolidin-2-one]", "values": [{"measurement": "IC50", "value": "500 to 5000", "unit": "nM"}]}
{"smiles": "CC(C)Oc1ccc(-c2nsc(Nc3ncccc3N(C)C)n2)nc1", "note": "[Compound 56, N2-(3-(5-isoprop-oxypyridin-2-yl)-1,2,4-thiadiazol-5-yl)-N3,N3 - dimethyl-pyridine-2,3-diamine]", "values": [{"measurement": "IC50", "value": "200 to 500", "unit": "nM"}]}
{"smiles": "CC(C)Oc1ccc(-c2nsc(Nc3ncccc3N(C)C)n2)nn1", "note": "[Compound 155, N2-(3-(6-isopropoxy-pyridazin-3-yl)-1,2,4-thiadiazol-5-yl)-N3,N3-dimethyl-pyridine-2,3-diamine]", "values": [{"measurement": "IC50", "value": "500 to 5000", "unit": "nM"}]}
{"smiles": "CC(C)Oc1ccc(-c2n[nH]c(Nc3ncccc3C(F)(F)F)n2)nc1", "note": "[Compound 70, N-(3-(5-isopropoxy-pyridin-2-yl)-1H-1,2,4-triazol-5-yl)-3-(trifluoromethyl) pyridin-2-amine]", "values": [{"measurement": "IC50", "value": "500 to 5000", "unit": "nM"}]}
